{"source": "patent US10494597B2", "about": "“Contamination mitigation” (Butamax Advanced Biofuels LLC, priority 2014, dated 2019)", "key": {"[1]": {"tested_on": "cell inoculum (shake flask culture)", "experiment": "Shake flask culture with crude COFA with or without BHT, YSI glucose measurements", "type": "cell-based", "settings": "BHT 0 wt % (control) to 5 wt % in crude COFA; 50% v/v COFA; 40 g/L glucose synthetic medium; 30° C., 260 rpm", "method": "In an experimental example, a cell inoculum originated from a 72 hour seed flask with a 30 g/L synthetic medium. The culture was inoculated into 40 g/L glucose in synthetic medium. […] The flasks were incubated in a thirty degree Celsius (30° C.), 260 revolutions per minute (rpm) shaker. One to one point five milliliter (1-1.5) mL samples were taken at points in time."}, "[2]": {"tested_on": "gram-positive and gram-negative bacteria (e.g., lactobacillus)", "settings": "cited from earlier work"}, "[3]": {"tested_on": "yeast (e.g., Saccharomyces)", "settings": "at comparable concentrations; cited from earlier work"}}}
{"molecule": "Cc1cc(C(C)(C)C)c(O)c(C(C)(C)C)c1", "note": "[BHT, butylated hydroxytoluene]", "values": [{"measurement": "glucose consumption", "setting": "[1]", "result": "No difference in glucose consumption was observed"}, {"measurement": "antimicrobial activity to gram-positive and gram-negative bacteria", "setting": "[2]", "result": "exhibits antimicrobial activity"}, {"measurement": "effect on yeast", "setting": "[3]", "result": "does not affect yeast"}]}
